“Also recorded” adds a separate entry of the source.

The subject of the first data set is PC 12 cells.
Assay: not given
The following applies: qualitative, background art; cited from earlier work.
Regarding `CN[C@@H]1C[C@H]2O[C@@](C)([C@@H]1OC)n1c3ccccc3c3c4c(c5c6ccccc6n2c5c31)C(=O)NC4` [staurosporin], the “PC 12 cell differentiation promoting activity” value is “found to have the PC 12 cell differentiation promoting activity”.

Test system in a further data set: not listed separately
The data set is described as follows: Solubility of NA32176A (physicochemical properties). Conditions: qualitative, by solvent; listed as NA32176A. An excerpt: Physicochemical properties of the thus obtained physiologically active substance NA32176A are shown below.
In the case of `CC(C)(CO)C(O)C(=O)NCCC(=O)NCCSCC1C(=O)CCC1C(=O)O` [Compound 1E, (1R,2S)-2-[N-(panthoyl- -alanylamido)ethylthio]methyl-3-oxo-1-cyclopentanecarboxylic Acid], the Solubility entry was “soluble in a lower alcohol, water or dimethylsulfoxide; also recorded: insoluble in hexane or petroleum ether”.

A further data set deals with PC12 cells. Briefly: Neuron-like neurite extension on PC12 cells. The format is cell-based, rat. The following applies: morphological change observed microscopically one day after adding test compound. An excerpt: Neuron-like neurite extension effect of the compounds of this invention on PC12 cells
The effect of the compounds of the invention was examined by a modification of the method of Green et al., Ann. Rev. Neurosci., 3, 353, 1980, and evaluated in terms of morphological change of PC12 cells and a level of the change. That is, PC12 cells were inoculated on Dulbecco-modified Eagle's medium supplemented with 10% calf fetal serum and 10% equine serum in approximately 100,000 cells/ml. The cells were incubated at 37° C. overnight in 5% CO2 using collagen-coated 96 well multiplates. Morphological change of the cells was microscopically observed one day after the test compound was added to each well under this conditions.
The minimum effective dose (MED, g/ml) of each compound on PC12 cells that caused neuron-like neurite extension is shown in Table 2 below.
Regarding “3-{2-(acetylamino)ethylthio}methyl-4-(4-methylphenyl)-4-oxobutyric Acid [Compound 12D]”, the Minimum effective dose (MED) to cause neuron-like neurite extension on PC12 cells worked out at 13 µg/mL.

The compound “4-(4-methoxyphenyl)-4-oxo-3-(1-piperidyl)methylbutyric Acid [Compound 3F]” returned a Minimum effective dose (MED) to cause neuron-like neurite extension on PC12 cells of 3.1 µg/mL.

“4-(1-piperazinyl)methyl-5-oxo-5-phenylpentanoic Acid [Compound 42F]” registered a Minimum effective dose (MED) to cause neuron-like neurite extension on PC12 cells of 1.6 µg/mL.

`CC(=O)N[C@@H](CSC[C@@H]1C(=O)CC[C@H]1C(=O)O)C(=O)N1CCCC1` [Compound 1B, (1R,2S)-2-[(2R)-{2-acetylamino-3-oxo-3-(1-pyrrolidinyl)}propylthio]methyl-3-oxo-1-cyclopentanecarboxylic Acid] yielded a Minimum effective dose (MED) to cause neuron-like neurite extension on PC12 cells of 3.2 µg/mL.

Compound `COC(=O)[C@H](CSCC1CC(C(=O)O)CC1=O)NC(C)=O` (stereo partly drawn) [Compound 2A, 4-[(2R)-(2-acetylamino-2-methoxycarbonyl)ethylthio]methyl-3-oxo-1-cyclopentanecarboxylic Acid] yielded a Minimum effective dose (MED) to cause neuron-like neurite extension on PC12 cells of 3.2 µg/mL.

Compound `COC(=O)[C@@H]1CCCN1C(=O)[C@H](CSC[C@@H]1C(=O)CC[C@H]1C(=O)O)NC(C)=O` (relative stereo) [Compound 6B, trans-2-[(2R)-[2-acetylamino-3-{1-((2S)-2-methoxycarbonylpyrrolidinyl)}-3-oxo]propylthio]methyl-3-oxo-1-cyclopentanecarboxylic Acid] registered a Minimum effective dose (MED) to cause neuron-like neurite extension on PC12 cells of 1.6 µg/mL.

Consider `CC(=O)NC(CCCCCCCCCCSC[C@@H]1C(=O)CC[C@H]1C(=O)O)C(=O)O` (relative stereo) [Compound 9B, trans-2-[(11-acetylamino-11-carboxy)undecylthio]methyl-3-oxo-1-cyclopentanecarboxylic acid], for which the Minimum effective dose (MED) to cause neuron-like neurite extension on PC12 cells was 6.3 µg/mL.

Regarding `COC(=O)[C@H](CSCC(CC(=O)O)C(=O)c1ccc(C)cc1)NC(C)=O` (stereo partly drawn) [Compound 13D, 3-{(2R)-(2-acetylamino-2-methoxycarbonyl)ethylthio}methyl-4-(4-methylphenyl)-4-oxobutyric Acid], the Minimum effective dose (MED) to cause neuron-like neurite extension on PC12 cells was 13 µg/mL.

The compound `COC(=O)[C@H](CSCC(CC(=O)O)C(=O)c1ccc(OC)cc1)NC(C)=O` (stereo partly drawn) [Compound 9D, 3-[(2R)-(2-acetylamino-2-methoxycarbonyl)ethylthio]methyl-4-(4-methoxyphenyl)-4-oxobutyric Acid] had a Minimum effective dose (MED) to cause neuron-like neurite extension on PC12 cells of 50 µg/mL.

Take `C[n+]1cccc(CCCSCC2C(=O)CCC2C(=O)O)c1.[I-]` [Compound 15B, (1R,2S)-2-[3-{3-(1-methylpyridinium iodide)}propylthio]methyl-3-oxo-1-cyclopentanecarboxylic Acid]: the Minimum effective dose (MED) to cause neuron-like neurite extension on PC12 cells came out at 3.1 µg/mL.

As for `COC(=O)[C@H](CSCC1C(=O)c2ccccc2C1C(=O)O)NC(C)=O` (stereo partly drawn) [Compound 6A, 2-((2R)-(2-acetylamino-2-methoxycarbonyl)ethylthio)methyl-3-oxo-1-indanecarboxylic Acid], the Minimum effective dose (MED) to cause neuron-like neurite extension on PC12 cells amounted to 25 µg/mL.

`CC(=O)N[C@@H](CSCC(CCC(=O)O)C(=O)c1ccccc1)C(=O)O` (stereo partly drawn) [Compound 38D, 4-[(2R)-{(2-acetylamino-2-carboxy)ethylthio}]methyl-5-oxo-5-phenylpentanoic acid] displayed a Minimum effective dose (MED) to cause neuron-like neurite extension on PC12 cells of 6.3 µg/mL.

`CC(=O)N[C@@H](CSC[C@@H]1C(=O)CC[C@H]1C(=O)O)C(=O)N1CCOCC1` [Compound 2B, (1R,2S)-2-[(2R)-{2-acetylamino-3-(4-morpholinyl)-3-oxo}propylthio]methyl-3-oxo-1-cyclopentanecarboxylic Acid] yielded a Minimum effective dose (MED) to cause neuron-like neurite extension on PC12 cells of 1.6 µg/mL.

On to “(1R,2S)-2-[(2R)-({2-carboxy-2-pentafluoropropionylamino)ethylthio]methyl-3-oxo-1-cyclopentanecarboxylic acid [Compound 4B]”, for which the Minimum effective dose (MED) to cause neuron-like neurite extension on PC12 cells was 3.2 µg/mL.

“2-methyl-4-oxo-4-phenyl-3-(1-piperazinyl)methylbutyric Acid [Compound 41F]” had a Minimum effective dose (MED) to cause neuron-like neurite extension on PC12 cells of 6.3 µg/mL.

In turn, “trans-2-[(2R)-(2-carboxy-2-pentafluoropropionylamino)ethylthio]methyl-3-hydroxymethyl-1-cyclopentanone [Compound 8B]” registered a Minimum effective dose (MED) to cause neuron-like neurite extension on PC12 cells of 0.8 µg/mL.

`COC(=O)[C@H](CSCC(CC(=O)O)C(=O)c1cccnc1)NC(C)=O` (stereo partly drawn) [Compound 32D, 3-[(2R)-(2-acetylamino-2-methoxycarbonyl)ethylthio]methyl-4-oxo-4-(3-pyridyl)butyric Acid]: the Minimum effective dose (MED) to cause neuron-like neurite extension on PC12 cells turned out to be 3.1 µg/mL.

Regarding `CC(=O)N[C@@H](CSCC1=C[C@H](O)CC1=O)C(=O)O` [Compound 2C, (4R)-2-[(2R)-(2-acetylamino-2-carboxy)ethylthio]methyl-4-hydroxy-2-cyclopenten-1-one], the Minimum effective dose (MED) to cause neuron-like neurite extension on PC12 cells is 6.3 µg/mL.

Compound `CC(=O)N[C@@H](CSCC1CC(C(=O)O)CC1=O)C(=O)O` (stereo partly drawn) [Compound 1A, 4-[(2R)-(2-acetylamino-2-carboxy)ethylthio]methyl-3-oxo-1-cyclopentanecarboxylic Acid] displayed a Minimum effective dose (MED) to cause neuron-like neurite extension on PC12 cells of 3.2 µg/mL.

In turn, `COC(=O)[C@H](CSCC(CC(=O)O)C(=O)c1ccccc1)NC(C)=O` (stereo partly drawn) [Compound 8D, 3-[(2R)-(2-acetylamino-2-methoxycarbonyl)ethylthio]methyl-4-oxo-4-phenylbutyric Acid] returned a Minimum effective dose (MED) to cause neuron-like neurite extension on PC12 cells of 6.3 µg/mL.

Compound “4-(4-methylphenyl)-4-oxo-3-(1-piperidyl)methylbutyric Acid [Compound 2F]” returned a Minimum effective dose (MED) to cause neuron-like neurite extension on PC12 cells of 3.1 µg/mL.

`CC(=O)N[C@@H](CSC[C@@H]1C(=O)CC[C@H]1C(=O)O)C(=O)N1CCN(c2ccccc2)CC1` [Compound 13B, (1R,2S)-2-[(2R)-2-acetylamino-3-oxo-3-{1-(4-phenyl)piperazinyl}propylthio]methyl-3-oxo-1-cyclopentanecarboxylic Acid] displayed a Minimum effective dose (MED) to cause neuron-like neurite extension on PC12 cells of 1.6 µg/mL.

In turn, `CC(=O)N[C@@H](CSCC(CC(=O)O)C(=O)c1ccccc1)C(=O)O` (stereo partly drawn) [Compound 7D, 3-[(2R)-(2-acetylamino-2-carboxy)ethylthio]methyl-4-oxo-4-phenylbutyric Acid] returned a Minimum effective dose (MED) to cause neuron-like neurite extension on PC12 cells of 13 µg/mL.

As to `CN1CCN(CC(CC(=O)O)C(=O)c2ccccc2)CC1` (stereo not shown) [Compound 6F, 3-{1-(4-methylpiperazinyl)}methyl-4-oxo-4-phenylbutyric acid], the Minimum effective dose (MED) to cause neuron-like neurite extension on PC12 cells amounted to 3.1 µg/mL.

Compound `COC(=O)[C@@H]1CCC(=O)[C@H]1CSC[C@H](NC(C)=O)C(=O)N1CCCC1` (relative stereo) [Compound 5B, trans-2-[(2R)-{2-acetylamino-3-oxo-3-(1-pyrrolidinyl)}propylthio]methyl-3-methoxycarbonyl-1-cyclopentanone] returned a Minimum effective dose (MED) to cause neuron-like neurite extension on PC12 cells of 0.8 µg/mL.

`COC(=O)[C@@H]1CCN1C(=O)[C@H](CSC[C@@H]1C(=O)CC[C@H]1C(=O)O)NC(C)=O` (relative stereo) [Compound 7B, trans-2-[(2R)-[2-acetylamino-3-{1-((2S)-2-methoxycarbonylazetidinyl)}-3-oxo]propylthio]methyl-3-oxo-1-cyclopentanecarboxylic Acid] showed a Minimum effective dose (MED) to cause neuron-like neurite extension on PC12 cells of 3.1 µg/mL.

These data come from US6384063B1, “Compound having effect of promoting neuron differentiation” (Nippon Kayaku Kabushiki Kaisha, priority 1997, dated 2002).
